# Reference: patent US7696246B2 (Ligand Pharmaceuticals Incorporated, priority 1999, dated 2010)
# Where two headings read alike, the source gives them in different places.
# Assays:
# human AR [1] = target: T1, human AR (Homo sapiens, UniProt P10275); assay: AR whole cell competitive binding assay (COS-1 cells, 3H-DHT); conditions: 1 nM 3H-DHT, Cheng-Prusoff
# T1 sequence (P10275 1-920): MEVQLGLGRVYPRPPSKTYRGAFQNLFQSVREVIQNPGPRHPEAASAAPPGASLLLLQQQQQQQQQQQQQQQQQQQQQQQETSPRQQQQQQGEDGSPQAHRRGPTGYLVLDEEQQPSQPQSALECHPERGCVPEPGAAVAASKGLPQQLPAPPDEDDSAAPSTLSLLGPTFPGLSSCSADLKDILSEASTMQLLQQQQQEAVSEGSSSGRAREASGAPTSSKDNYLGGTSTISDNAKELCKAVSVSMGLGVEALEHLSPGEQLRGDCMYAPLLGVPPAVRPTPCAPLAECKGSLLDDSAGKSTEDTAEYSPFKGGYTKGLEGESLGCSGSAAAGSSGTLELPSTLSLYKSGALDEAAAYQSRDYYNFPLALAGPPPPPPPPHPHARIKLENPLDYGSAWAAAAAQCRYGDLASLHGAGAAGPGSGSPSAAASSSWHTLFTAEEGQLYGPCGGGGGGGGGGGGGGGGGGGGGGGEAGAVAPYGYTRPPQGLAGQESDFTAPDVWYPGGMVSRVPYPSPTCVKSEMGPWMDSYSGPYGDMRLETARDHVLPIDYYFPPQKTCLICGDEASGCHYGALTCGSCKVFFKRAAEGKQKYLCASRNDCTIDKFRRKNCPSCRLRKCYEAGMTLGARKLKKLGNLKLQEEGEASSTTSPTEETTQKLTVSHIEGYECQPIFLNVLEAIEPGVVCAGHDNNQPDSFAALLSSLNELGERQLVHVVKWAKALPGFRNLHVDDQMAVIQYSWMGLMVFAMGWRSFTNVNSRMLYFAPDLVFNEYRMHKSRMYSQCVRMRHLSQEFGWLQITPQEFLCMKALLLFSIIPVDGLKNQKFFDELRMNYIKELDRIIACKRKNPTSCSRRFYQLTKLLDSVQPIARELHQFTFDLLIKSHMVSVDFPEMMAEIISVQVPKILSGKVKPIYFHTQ
# Procedure: AR Binding: For the whole cell binding assay, COS-1 cells in 96-well microtiter plates containing DMEM-10% FBS were transfected as described above with the following plasmid DNA: pRShAR (2 ng/well), pRS-β-Gal (50 ng/well) and pGEM (48 ngcwell). Six hours after transfection, media was removed, the cells were washed with PBS and fresh media was added. The next day, the media was changed to DMEM-serum free to remove any endogenous ligand that might be complexed with the receptor in the cells.
# Three replicates were used for each sample. […] The remaining media was removed, the cells were washed three times with PBS to remove unbound ligand, and cells were lysed with a Triton X-100-based buffer.
# For the saturation analyses, the difference between the total binding and the nonspecific binding, normalized by the β-Gal rate, was defined as specific binding. […] The Ki values were determined by application of the Cheng-Prusoff equation to the IC50 values, where:
# After correcting for non-specific binding, IC50 values were determined. […] The IC50 value was determined graphically from a log-logit plot of the data. The Ki values were determined by application of the Cheng-Prusoff equivuation to the IC50 values, the labeled ligand concentration and the Kd of the labeled ligand.
# human AR [2] = target: T1, human AR; assay: Co-transfection assay, AR agonist activity (CV-1 cells, MTV-LUC reporter); assay type: cell-based; conditions: CV-1 cells; for EC50: agonist potency EC50; for AR Agonist CV-1 Cells Efficacy (%): percent maximal response relative to reference agonist DHT
# human AR [3] = target: T1, human AR; assay: Co-transfection assay, AR antagonist activity (CV-1 cells, in presence of DHT); assay type: cell-based; conditions: for AR Antagonist CV-1 Cells Efficacy (%): percent maximal inhibition, DHT at its EC50
# [4] = read-out: AR Antagonist CV-1 Cells Potency
smiles,measurement,setting,value
"O=c1cc(C(F)(F)F)c2cc(N3CCCC3Cc3ccccc3)ccc2[nH]1 (racemic) [Compound 341, (±)-6-(2-Benzyl-1-pyrrolidino)-4-trifluoromethyl-2(1H)-quinolinone]",Ki,human AR [1],277 nM
same,EC50,human AR [2],> 10000 nM
same,AR Antagonist CV-1 Cells Efficacy (%),human AR [3],85%
same,IC50,human AR [3]; [4],15 nM
"C[C@@H]1C=C[C@H](C)N1c1ccc2[nH]c(=O)cc(C(F)(F)F)c2c1 [Compound 332, 6-(2,5-cis-Dimethyl-1-pyrrolino)-4-trifluoromethyl-2(1H)-quinolinone]",Ki,human AR [1],19 nM
same,EC50,human AR [2],14 nM
same,AR Agonist CV-1 Cells Efficacy (%),human AR [2],121%
same,AR Antagonist CV-1 Cells Efficacy (%),human AR [3],"na (na = not active (i.e. efficacy of <20 and potency of >10,000))"
same,IC50,human AR [3]; [4],> 10000 nM
"O=c1cc(C(F)(F)F)c2cc(C3=CCCCC3)ccc2[nH]1 [Compound 630, 6-Cyclohexenyl-4-trifluoromethyl-2(1H)-quinolinone]",Ki,human AR [1],109 nM
same,EC50,human AR [2],221 nM
same,AR Agonist CV-1 Cells Efficacy (%),human AR [2],30%
same,AR Antagonist CV-1 Cells Efficacy (%),human AR [3],67%
same,IC50,human AR [3]; [4],13 nM
"O=c1cc(C(F)(F)F)c2cc(C3CCCCC3)ccc2[nH]1 [Compound 616, 6-Cyclohexyl-4-trifluoromethyl-2(1H)-quinolinone]",Ki,human AR [1],15 nM
same,EC50,human AR [2],> 10000 nM
same,AR Antagonist CV-1 Cells Efficacy (%),human AR [3],92%
same,IC50,human AR [3]; [4],17 nM
"O=c1cc(C(F)(F)F)c2cc(N3CCCCC3)ccc2[nH]1 [Compound 311, 6-(1-Piperidinyl)-4-trifluoromethyl-2(1H)-quinolinone]",Ki,human AR [1],12 nM
same,EC50,human AR [2],143 nM
same,AR Agonist CV-1 Cells Efficacy (%),human AR [2],42%
same,AR Antagonist CV-1 Cells Efficacy (%),human AR [3],38%
same,IC50,human AR [3]; [4],13 nM
"COc1cccc(-c2ccc3[nH]c(=O)cc(C)c3c2)c1 [Compound 758, 4-Methyl-6-(3-methoxyphenyl)-2(1H)-quinolinone]",Ki,human AR [1],3.6 nM
same,EC50,human AR [2],> 10000 nM
same,AR Antagonist CV-1 Cells Efficacy (%),human AR [3],94%
same,IC50,human AR [3]; [4],87 nM
"O=c1cc(C(F)(F)F)c2cc(N3CCCC[C@@H]3[C@@H](O)C(F)(F)F)ccc2[nH]1 [Compound 457, (+)-6-(2R-(1R-Hydroxy-2,2,2-trifluoroethyl)-1-piperidino)-4-trifluoromethyl-2(1H)-quinolinone]",Ki,human AR [1],3.2 nM
same,EC50,human AR [2],3 nM
same,AR Agonist CV-1 Cells Efficacy (%),human AR [2],85%
same,AR Antagonist CV-1 Cells Efficacy (%),human AR [3],"na (na = not active (i.e. efficacy of <20 and potency of >10,000))"
same,IC50,human AR [3]; [4],> 10000 nM
"O=c1cc(C(F)(F)F)c2cc(NCC(Cl)(Cl)Cl)ccc2[nH]1 [Compound 227, 6-(N-2,2,2-Trichloroethyl)amino-4-trifluoromethyl-2(1H)-quinolinone]",Ki,human AR [1],38 nM
same,EC50,human AR [2],> 10000 nM
same,AR Antagonist CV-1 Cells Efficacy (%),human AR [3],73%
same,IC50,human AR [3]; [4],14 nM
"O=c1cc(C(F)(F)F)c2cc(N(CC(Cl)Cl)CC(Cl)Cl)ccc2[nH]1 [Compound 232, 6-(bis-N-2,2-Dichloroethyl)amino-4-trifluoromethyl-2(1H)-quinolinone]",Ki,human AR [1],7.6 nM
same,EC50,human AR [2],3.4 nM
same,AR Agonist CV-1 Cells Efficacy (%),human AR [2],55%
same,AR Antagonist CV-1 Cells Efficacy (%),human AR [3],"na (na = not active (i.e. efficacy of <20 and potency of >10,000))"
same,IC50,human AR [3]; [4],> 10000 nM
"CC1(C)OC(=O)Nc2ccc(N(CC(F)(F)F)CC(F)(F)F)cc21 [Compound 490, 1,4-Dihydro-4,4-dimethyl-6-(bis-N,N-2,2,2-trifluoroethyl)amino-1,3-benzo [d-]oxazin-2-one]",Ki,human AR [1],12 nM
same,EC50,human AR [2],12 nM
same,AR Agonist CV-1 Cells Efficacy (%),human AR [2],113%
same,AR Antagonist CV-1 Cells Efficacy (%),human AR [3],"na (na = not active (i.e. efficacy of <20 and potency of >10,000))"
same,IC50,human AR [3]; [4],> 10000 nM
"CC(C)CN(CC(F)(F)F)c1ccc2[nH]c(=O)cc(C(F)(F)F)c2c1 [Compound 259, 6-(N-2,2,2-trifluoroethyl-N-isobutyl)amino-4-trifluoromethyl-2(1H)-quinolinone]",Ki,human AR [1],6.3 nM
same,EC50,human AR [2],1.9 nM
same,AR Agonist CV-1 Cells Efficacy (%),human AR [2],97%
same,AR Antagonist CV-1 Cells Efficacy (%),human AR [3],"na (na = not active (i.e. efficacy of <20 and potency of >10,000))"
same,IC50,human AR [3]; [4],> 10000 nM
"CC(C)(C)Nc1ccc2[nH]c(=O)cc(C(F)(F)F)c2c1 [Compound 307, 6-tert-Butylamino-4-trifluoromethyl-2(1H)-quinolinone]",Ki,human AR [1],61 nM
same,EC50,human AR [2],> 10000 nM
same,AR Antagonist CV-1 Cells Efficacy (%),human AR [3],43%
same,IC50,human AR [3]; [4],3.2 nM
"O=c1cc(C(F)(F)F)c2cc(N(CC(F)(F)F)CC(F)(F)F)ccc2o1 [Compound 474, 6-(bis-N,N-2,2,2-Trifluoroethyl)amino-4-trifluoromethylcoumarin]",Ki,human AR [1],1.8 nM
same,EC50,human AR [2],0.6 nM
same,AR Agonist CV-1 Cells Efficacy (%),human AR [2],73%
same,AR Antagonist CV-1 Cells Efficacy (%),human AR [3],"na (na = not active (i.e. efficacy of <20 and potency of >10,000))"
same,IC50,human AR [3]; [4],> 10000 nM
"O=c1[nH]c2cc(NC3CCCC3)ccc2c(C(F)(F)F)c1F [Compound 536, 3-Fluoro-7-cyclopentylamino-4-trifluoromethyl-2(1H)-quinolinone]",Ki,human AR [1],188 nM
same,EC50,human AR [2],> 10000 nM
same,AR Antagonist CV-1 Cells Efficacy (%),human AR [3],76%
same,IC50,human AR [3]; [4],28 nM
"O=c1cc(C(F)(F)F)c2cc(-c3ccccc3)ccc2[nH]1 [Compound 764, 4-Trifluoromethyl-6-phenyl-2(1H)-quinolinone]",Ki,human AR [1],16 nM
same,EC50,human AR [2],> 10000 nM
same,AR Antagonist CV-1 Cells Efficacy (%),human AR [3],87%
same,IC50,human AR [3]; [4],30 nM
"O=c1cc(C(F)(F)F)c2cc(N3CCCC[C@@H]3CCl)ccc2[nH]1 [Compound 433, (−)R-6-(2-Chloromethyl-1-piperidino)-4-trifluoromethyl-2(1H)-quinolinone]",Ki,human AR [1],1.5 nM
same,EC50,human AR [2],6.4 nM
same,AR Agonist CV-1 Cells Efficacy (%),human AR [2],120%
same,AR Antagonist CV-1 Cells Efficacy (%),human AR [3],"na (na = not active (i.e. efficacy of <20 and potency of >10,000))"
same,IC50,human AR [3]; [4],> 10000 nM
"CC1(C)CC2CC(C)(CN2c2ccc3[nH]c(=O)cc(C(F)(F)F)c3c2)C1 (racemic) [Compound 350, (±)-6-(1,3,3-Trimethyl-6-azabicyclo[3.2.1]octanyl-6-)-4-trifluoromethyl-2(1H)-quinolinone]",Ki,human AR [1],165 nM
same,EC50,human AR [2],29 nM
same,AR Agonist CV-1 Cells Efficacy (%),human AR [2],73%
same,AR Antagonist CV-1 Cells Efficacy (%),human AR [3],"na (na = not active (i.e. efficacy of <20 and potency of >10,000))"
same,IC50,human AR [3]; [4],> 10000 nM
"CCCOc1c(NCC(F)(F)F)ccc2[nH]c(=O)cc(C(F)(F)F)c12 [Compound 602, 6-(N-2,2,2-Trifluoroethyl)amino-5-propyloxy-4-trifluoromethyl-2(1H)-quinolinone]",Ki,human AR [1],45 nM
same,EC50,human AR [2],> 10000 nM
same,AR Antagonist CV-1 Cells Efficacy (%),human AR [3],85%
same,IC50,human AR [3]; [4],27 nM
"O=c1cc(C(F)(F)F)c2cc(N3CCCCC3CCOCc3ccccc3)ccc2[nH]1 (racemic) [Compound 445, (±)-6-(2-Benzyloxyethyl-1-piperidino)-4-trifluoromethyl-2(1H)-quinolinone]",Ki,human AR [1],5.8 nM
same,EC50,human AR [2],26 nM
same,AR Agonist CV-1 Cells Efficacy (%),human AR [2],104%
same,IC50,human AR [3],> 10000 nM
same,AR Antagonist CV-1 Cells Efficacy (%),human AR [3],"na (na = not active (i.e. efficacy of <20 and potency of >10,000))"
"CCCN(CC1CC1)c1ccc2[nH]c(=O)cc(C(F)(F)F)c2c1 [Compound 254, 6-(N-Propyl-N-cyclopropylmethyl)amino-4-trifluoromethyl-2(1H)-quinolinone]",Ki,human AR [1],12 nM
same,EC50,human AR [2],0.9 nM
same,AR Agonist CV-1 Cells Efficacy (%),human AR [2],78%
same,AR Antagonist CV-1 Cells Efficacy (%),human AR [3],"na (na = not active (i.e. efficacy of <20 and potency of >10,000))"
same,IC50,human AR [3]; [4],> 10000 nM
"CC(C)CN(c1ccc2[nH]c(=O)cc(C(F)(F)F)c2c1)C(C)C(F)(F)F (racemic) [Compound 290, (±)-6-(N-Isobutyl-N-2,2,2-trifluoroisopropyl)amino-4-trifluoromethyl-2(1H)-quinolinone]",Ki,human AR [1],> 1000 nM
same,EC50,human AR [2],32 nM
same,AR Agonist CV-1 Cells Efficacy (%),human AR [2],37%
same,AR Antagonist CV-1 Cells Efficacy (%),human AR [3],50%
same,IC50,human AR [3]; [4],50 nM
"CCCN(c1ccc2[nH]c(=O)cc(C(F)(F)F)c2c1)C(C)CC (racemic) [Compound 255, (±)-6-(N-Propyl-N-1-methylpropyl)amino-4-trifluoromethyl-2(1H)-quinolinone]",Ki,human AR [1],67 nM
same,EC50,human AR [2],25 nM
same,AR Agonist CV-1 Cells Efficacy (%),human AR [2],135%
same,AR Antagonist CV-1 Cells Efficacy (%),human AR [3],"na (na = not active (i.e. efficacy of <20 and potency of >10,000))"
same,IC50,human AR [3]; [4],> 10000 nM
"CC(C)CN(CC(C)C)c1ccc2[nH]c(=O)cc(C(F)(F)F)c2c1 [Compound 221, 6-Diisobutylamino-4-trifluoromethyl-2(1H)-quinolinone]",Ki,human AR [1],147 nM
same,EC50,human AR [2],23 nM
same,AR Agonist CV-1 Cells Efficacy (%),human AR [2],114%
same,AR Antagonist CV-1 Cells Efficacy (%),human AR [3],"na (na = not active (i.e. efficacy of <20 and potency of >10,000))"
same,IC50,human AR [3]; [4],> 10000 nM
